The NIST ThermoML archive (doi:10.1016/j.jct.2006.06.001)

Columns and labels:
[1] = 81.5 kPa, Liquid
[2] = xn = mol fraction of the nth substance listed; details: 81.5 kPa, Liquid

CC(O)CO (stereo not given) [1,2-propanediol]
[1]
Details	mass density [kg/m3]
293.15 K	1036.3
303.15 K	1028.89
313.15 K	1021.35
323.15 K	1013.68
333.15 K	1005.86
343.15 K	997.86

COCCO [2-methoxyethan-1-ol]
[1]
Details	mass density [kg/m3]
293.15 K	964.86
303.15 K	955.68
313.15 K	946.38
323.15 K	936.95
333.15 K	927.38
343.15 K	917.64

COCCO [2-methoxyethan-1-ol] + CC(C)O
mass density [kg/m3], [2]
Details	293.15 K	303.15 K	313.15 K	323.15 K	333.15 K	343.15 K
x1 = 0.0823	800.06	791.49	782.64	773.45	763.86	753.79
x1 = 0.1565	813.56	804.91	796	786.79	777.21	767.2
x1 = 0.2367	828.13	819.4	810.43	801.18	791.6	781.64
x1 = 0.3166	842.63	833.83	824.81	815.54	805.96	796.02
x1 = 0.4015	858.01	849.14	840.08	830.78	821.21	811.31
x1 = 0.4766	871.62	862.69	853.59	844.26	834.69	824.82
x1 = 0.5605	886.76	877.79	868.64	859.3	849.72	839.87
x1 = 0.6403	901.1	892.08	882.9	873.54	863.96	854.14
x1 = 0.7179	914.98	905.92	896.72	887.34	877.76	867.96
x1 = 0.7925	928.26	919.16	909.94	900.55	890.96	881.18
x1 = 0.8593	940.12	931	921.74	912.34	902.77	892.99
x1 = 0.9585	957.65	948.49	939.2	929.78	920.21	910.45

COCCO [2-methoxyethan-1-ol] + CC(O)CO
mass density [kg/m3], [2]
Details	293.15 K	303.15 K	313.15 K	323.15 K	333.15 K	343.15 K
x1 = 0.0745	1030.87	1023.34	1015.67	1007.87	999.89	991.75
x1 = 0.1669	1024.12	1016.42	1008.59	1000.6	992.48	984.19
x1 = 0.2365	1019.06	1011.22	1003.26	995.17	986.94	978.54
x1 = 0.3194	1013.05	1005.07	996.96	988.73	980.35	971.81
x1 = 0.3946	1007.6	999.48	991.25	982.88	974.38	965.73
x1 = 0.4791	1001.49	993.22	984.85	976.34	967.7	958.9
x1 = 0.5625	995.51	987.1	978.58	969.93	961.14	952.2
x1 = 0.6331	990.47	981.94	973.3	964.53	955.63	946.55
x1 = 0.7266	983.82	975.12	966.32	957.38	948.31	939.08
x1 = 0.8081	978.11	969.27	960.32	951.24	942.02	932.64
x1 = 0.8752	973.43	964.47	955.4	946.21	936.87	927.36
x1 = 0.9658	967.23	958.12	948.88	939.52	930.01	920.33

COCCO [2-methoxyethan-1-ol] + CCCO
mass density [kg/m3], [2]
Details	293.15 K	303.15 K	313.15 K	323.15 K	333.15 K	343.15 K
x1 = 0.0845	817.73	809.55	801.23	792.73	783.99	774.97
x1 = 0.1559	829.58	821.29	812.86	804.25	795.42	786.31
x1 = 0.2391	843.36	834.94	826.39	817.66	808.72	799.51
x1 = 0.3146	855.77	847.26	838.61	829.78	820.75	811.47
x1 = 0.4015	869.91	861.29	852.53	843.61	834.47	825.11
x1 = 0.479	882.45	873.74	864.89	855.88	846.68	837.25
x1 = 0.5597	895.42	886.62	877.69	868.6	859.32	849.83
x1 = 0.6365	907.69	898.82	889.81	880.65	871.31	861.76
x1 = 0.7183	920.73	911.78	902.7	893.47	884.08	874.48
x1 = 0.7939	932.73	923.71	914.56	905.28	895.83	886.17
x1 = 0.8775	945.88	936.8	927.59	918.24	908.74	899.05
x1 = 0.9553	957.99	948.84	939.57	930.18	920.63	910.9

CCCO [propan-1-ol]
[1]
Details	mass density [kg/m3]
293.15 K	803.61
303.15 K	795.57
313.15 K	787.39
323.15 K	779.02
333.15 K	770.42
343.15 K	761.51

CC(C)O [propan-2-ol]
[1]
Details	mass density [kg/m3]
293.15 K	785.1
303.15 K	776.63
313.15 K	767.85
323.15 K	758.68
333.15 K	749.06
343.15 K	738.91
